# Experimental data taken from patent US20110200626A1, “IQGAP3 EPITOPE PEPTIDES AND VACCINES CONTAINING THE SAME” (Oncotherapy Science, Inc., priority 2008, published 2011).
# Entries after “also recorded” stand apart in the source; their conditions may differ. Ends that are not written are not given here.
# Columns and labels:
# Format in all cases: cell-based, human
# [1] = system: peptide-pulsed A24LCL cells; experiment: IFN-gamma ELISA assay on CTL lines (HLA-A*2402); conditions: target cells pulsed with corresponding peptide vs without peptide
# [2] = system: peptide-pulsed A24LCL cells; experiment: IFN-gamma ELISPOT assay on CTLs induced with HLA-A*2402 restricted peptides; conditions: against peptide-pulsed target cells compared with control without peptide
# peptide-pulsed T2 cells [3] = experiment: IFN-gamma ELISPOT assay on CTLs induced with HLA-A*0201 restricted peptides; conditions: against peptide-pulsed target cells compared with control without peptide
# peptide-pulsed T2 cells [4] = experiment: IFN-gamma ELISA assay on CTL lines (HLA-A*0201); conditions: target cells pulsed with corresponding peptide vs without peptide
substance,measurement,setting,value
AYQHLFYLL [SEQ ID NO: 2],IFN-gamma production of established CTL lines (ELISA),[1],potent IFN-gamma production
same,IFN-gamma production of peptide-induced CTLs (ELISPOT),[2]; listed as IQGAP3-A24-9-955,potent IFN-gamma production ability
CFAPSVVPL [SEQ ID NO: 21],IFN-gamma production of established CTL lines (ELISA),[1],potent IFN-gamma production
same,IFN-gamma production of peptide-induced CTLs (ELISPOT),[2]; listed as IQGAP3-A24-9-74,potent IFN-gamma production ability
FLAEaELLKL (FLAEAELLKL; not fully specified (residue 5); printed as FLAEaELLKL) [SEQ ID NO: 113],IFN-gamma production of peptide-induced CTLs (ELISPOT),peptide-pulsed T2 cells [3],no specific IFN-gamma production
FLRTWLPAV [SEQ ID NO: 101],IFN-gamma production of established CTL lines (ELISA),peptide-pulsed T2 cells [4],potent IFN-gamma production
same,IFN-gamma production of peptide-induced CTLs (ELISPOT),peptide-pulsed T2 cells [3]; listed as IQGAP3-A02-9-756,potent IFN-gamma production ability
HALGAVAQLL [SEQ ID NO: 67],IFN-gamma production of established CTL lines (ELISA),[1],potent IFN-gamma production
same,IFN-gamma production of peptide-induced CTLs (ELISPOT),[2]; listed as IQGAP3-A24-10-1207,potent IFN-gamma production ability
ILVHaPHPPL (ILVHAPHPPL; not fully specified (residue 5); printed as ILVHaPHPPL) [SEQ ID NO: 148],IFN-gamma production of established CTL lines (ELISA),peptide-pulsed T2 cells [4],potent IFN-gamma production
same,IFN-gamma production of peptide-induced CTLs (ELISPOT),peptide-pulsed T2 cells [3]; listed as IQGAP3-A02-10-842,potent IFN-gamma production ability
KALQDPALAL [SEQ ID NO: 57],IFN-gamma production of established CTL lines (ELISA),[1],potent IFN-gamma production
same,IFN-gamma production of peptide-induced CTLs (ELISPOT),[2]; listed as IQGAP3-A24-10-314,potent IFN-gamma production ability
KAQELGLVEL [SEQ ID NO: 53],IFN-gamma production of established CTL lines (ELISA),[1],potent IFN-gamma production
same,IFN-gamma production of peptide-induced CTLs (ELISPOT),[2]; listed as IQGAP3-A24-10-345,potent IFN-gamma production ability
KIGGILANEL [SEQ ID NO: 56],IFN-gamma production of established CTL lines (ELISA),[1],potent IFN-gamma production
same,IFN-gamma production of peptide-induced CTLs (ELISPOT),[2]; listed as IQGAP3-A24-10-191,potent IFN-gamma production ability
KVNVNLLIFL [SEQ ID NO: 55],IFN-gamma production of established CTL lines (ELISA),[1],potent IFN-gamma production
same,IFN-gamma production of peptide-induced CTLs (ELISPOT),[2]; listed as IQGAP3-A24-10-1614,potent IFN-gamma production ability
MYQLELAVL [SEQ ID NO: 6],IFN-gamma production of established CTL lines (ELISA),[1],no specific IFN-gamma production
same,IFN-gamma production of established CTL lines (ELISA),[1]; listed as IQGAP3-A24-9-417,typical negative data of CTL response
same,IFN-gamma production of peptide-induced CTLs (ELISPOT),[2]; listed as IQGAP3-A24-9-417,typical negative data of CTL response; also recorded: no specific IFN-gamma production
PYDVTPEQAL [SEQ ID NO: 49],IFN-gamma production of established CTL lines (ELISA),[1],potent IFN-gamma production
same,IFN-gamma production of peptide-induced CTLs (ELISPOT),[2]; listed as IQGAP3-A24-10-1097,potent IFN-gamma production ability
QYEGVAVMKL [SEQ ID NO: 35],IFN-gamma production of established CTL lines (ELISA),[1],potent IFN-gamma production
same,IFN-gamma production of peptide-induced CTLs (ELISPOT),[2]; listed as IQGAP3-A24-10-1600,potent IFN-gamma production ability
RLDIALRNLL [SEQ ID NO: 63],IFN-gamma production of established CTL lines (ELISA),[1],potent IFN-gamma production
same,IFN-gamma production of peptide-induced CTLs (ELISPOT),[2]; listed as IQGAP3-A24-10-1114,potent IFN-gamma production ability
RNGVLLAKL [SEQ ID NO: 32],IFN-gamma production of established CTL lines (ELISA),[1],potent IFN-gamma production
same,IFN-gamma production of peptide-induced CTLs (ELISPOT),[2]; listed as IQGAP3-A24-9-63,potent IFN-gamma production ability
RQNVAYQYL [SEQ ID NO: 25],IFN-gamma production of established CTL lines (ELISA),[1],potent IFN-gamma production
same,IFN-gamma production of peptide-induced CTLs (ELISPOT),[2]; listed as IQGAP3-A24-9-26,potent IFN-gamma production ability
RSLLLSTKQL [SEQ ID NO: 62],IFN-gamma production of established CTL lines (ELISA),[1],potent IFN-gamma production
same,IFN-gamma production of peptide-induced CTLs (ELISPOT),[2]; listed as IQGAP3-A24-10-1363,potent IFN-gamma production ability
RVVYCIHAL [SEQ ID NO: 29],IFN-gamma production of established CTL lines (ELISA),[1],potent IFN-gamma production
same,IFN-gamma production of peptide-induced CTLs (ELISPOT),[2]; listed as IQGAP3-A24-9-137,potent IFN-gamma production ability
VYCIHALSLF [SEQ ID NO: 40],IFN-gamma production of established CTL lines (ELISA),[1],potent IFN-gamma production
same,IFN-gamma production of peptide-induced CTLs (ELISPOT),[2]; listed as IQGAP3-A24-10-139,potent IFN-gamma production ability
VYKVVGNLL [SEQ ID NO: 4],IFN-gamma production of established CTL lines (ELISA),[1],potent IFN-gamma production
same,IFN-gamma production of peptide-induced CTLs (ELISPOT),[2]; listed as IQGAP3-A24-9-1167,potent IFN-gamma production ability
YYSQYIRACL [SEQ ID NO: 37],IFN-gamma production of established CTL lines (ELISA),[1],potent IFN-gamma production
same,IFN-gamma production of peptide-induced CTLs (ELISPOT),[2]; listed as IQGAP3-A24-10-1507,potent IFN-gamma production ability
